Patent US20240131004A1, “FUNCTIONALIZED 1,3-BENZENE DIOLS AND THEIR METHOD OF USE FOR THE TREATMENT OF INFLAMMATION AND PAIN” (KANNALIFE SCIENCES, INC., priority 2021, published 2024)
Entries after “also recorded” stand apart in the source; their conditions may differ.

What was measured:
[1] = system: dorsal root ganglion (DRG) cultures; test: Alamar Blue cellular viability in DRG cultures, reversal of paclitaxel toxicity; format: cell-based, rat
Procedure: (§1) At the conclusion of each experiment, sister cultures to those assessed by image analysis were evaluated with either a fluorescent dye-based assays for neuronal viability (6-carboxyfluorescein diacetate, CFDA) or with viability dye Alamar Blue. The preferred dye was Alamar Blue as this assay of viability could be conducted and then the dye washed off the cultures for subsequent fixation and follow-up immunocytochemical assays. […] In addition, a portion of the reductive conversion of resazurin to the highly fluorescent resorufin in the Alamar Blue reagent is attributable to the action of mitochondrial reductases. Because of the need for enhanced sensitivity, the Alamar Blue assay was predominantly used for these studies. Similar results in assessing pharmacological responses were obtained with both assays (see Brenneman et al, 2019).
On every plate, wells without cells were used to provide a blank reading that was used to subtract background fluorescence. For the Alamar Blue viability assay, 10 ul of the dye was added directly to the culture well that contained 100 ul of nutrient medium (Ivanov et al., 2016). Incubation times with the dye ranged from 1-5 hrs., depending on the experimental goals. Fluorescence was measured at an excitation of 530 nm and an emission of 590 on a Cytofluor plate reader.
Referring to FIG. 1, cellular viability, as measured with the viability dye Alamar Blue, is shown with relative fluorescence units (RFU) in dorsal root ganglion (DRG) cultures after treatment with 3 μM paclitaxel for 8 hours followed by 16 hours treatment with various concentrations of KLS-13019. Reference lines are provided to depict the RFU levels for control cultures (medium dash) and cultures pre-treated only with 3 μM paclitaxel (dash-dot-dash) for eight hours. […] To confirm, all treated cultures were continuously exposed to paclitaxel throughout the 24-hour duration of the experiment. […] Each value is the mean of 6 determinations.

interleukin-1β (IL-1β) = test: Interleukin-1β immunoreactive area in cell bodies and neurites of DRG neurons, paclitaxel reversal paradigm; format: cell-based, rat
Procedure: (§2) The GPR55 antibody was obtained from abcam. […] The secondary antibodies were obtained from Life Technologies.
(§3) Responses of interleukin-1β (IL-1β) immunoreactive (IR) areas (μ^2) in cell bodies (open circles) and neurites (closed circles) of rat DRG neurons from dissociated cultures are shown in FIG. 4 after pre-treatment with 3 μM paclitaxel for 8 hours followed by 16 hours treatment with various concentrations of KLS-13019. Reference lines are provided to depict the average cell body IL-1β area (medium dash) and neurites IL-1β (dash-dot-dash) from control cultures. The zero-concentration data point on both curves depicts values for cultures treated only with 3 μM paclitaxel. […] To confirm, all treated cultures were continuously exposed to paclitaxel throughout the 24-hour duration of the experiment. […] Each value is the mean of 8 determinations. […] All assays were conducted by high content fluorescence imaging (Brenneman et al., 2018 and 2019).

GPR55 [2] = test: Cell body GPR55 immunoreactive area in DRG neurons, paclitaxel reversal paradigm, high content imaging; format: cell-based, rat
Procedure: as §2
Responses of cell body GPR55 immunoreactive areas (μ^2) of neurons from dorsal root ganglion (DRG) cultures are shown in FIG. 2 after pretreatment with 3 μM paclitaxel for 8 hours followed by 16 hours treatment with various concentrations of KLS-13019. Reference lines are provided to depict the average cell body GPR55 area for control cultures (medium dash) and that of cultures pre-treated only with 3 μM paclitaxel (dash-dot-dash) for eight hours. […] Each value is the mean of 8 determinations. […] All assays were conducted by high content fluorescence imaging (Brenneman et al., 2018 and 2019).

interleukin-6 (IL-6) = test: Interleukin-6 immunoreactive area in cell bodies and neurites of DRG neurons, paclitaxel reversal paradigm; format: cell-based, rat
Procedure: as §2
as §3, with “Referring to FIG. 3, responses” for “Responses”, “interleukin-6 (IL-6)” for “interleukin-1β (IL-1β)”, “shown” for “shown in FIG. 4”, “pretreatment” for “pre-treatment”, “KLS -13019.” for “KLS-13019.”, “IL-6” for “IL-1β”

human GPR55 = target: T1, human GPR55 (Homo sapiens, UniProt Q9Y2T6); test: PathHunter β-arrestin assay, human GPR55 in CHO-K1 cell line; format: cell-based
T1 construct: host or cells: CHO-K1
Procedure: In this assay, agonist-induced activation of GPR55 stimulates binding of β-arrestin to the Pro-link-tagged GPCR and forces complementation of two enzyme fragments, resulting in the formation of an active β-galactosidase enzyme. This interaction leads to an increase in enzyme activity that can be measured using chemiluminescent PathHunter detection reagents. For our application, the GPR55 agonist lysophosphatidylinositol (LPI) was tested from 0.1 nM to 30 μM to increase the relative luminescent signal relative to that of control. […] For the GPR55 antagonism assay, KLS-13019 concentrations ranging from 0.1 nM to 30 μM were tested in the presence of 16 μM LPI. Concentrations of KLS-13019 ranging from 0.1 nM to 30 μM were tested alone for possible effects of agonistic activity on β-arrestin.
A PathHunter β-arrestin assay is shown in FIG. 8 that provides a measure of an antagonist mode assessment of KLS-13019 with a human GPR55 model system (Eurofins). To measure the β-arrestin response to a GPR55 agonist, various concentrations of lysophosphatidylinositol (LPI) were used as shown in the closed circles. […] Based on these findings, 16 μM LPI was incubated with various concentrations of KLS-13019 to test for antagonistic properties (closed inverted triangles). […] All assays were conducted with an N=10.

NLRP3 = test: Neuritic NLRP3 immunoreactive spot area in hippocampal neurons, LPIA reversal paradigm; format: cell-based, rat
Description: Tissue was dissociated with a papain-based kit from Worthington Biochemical Corporation (Lakewood, NJ).
(§4) To assess all antibody-based assays, immunocytochemical methods were employed. The goals for these assays included: 1) to assess the immunoreactive area of our molecular targets (IL-1β, IL-6, GPR55, NLRPA3) with their respective primary antibodies and distinctively labeled secondary antibodies; and 2) to compare the relative responses in both neuronal cell bodies and neurites. Prior to fixation, growth medium was removed and the wells were rinsed one time with 100 μL of DPBS (37° C.). This warm rinse is particularly important to maintain structural stability of neurites. After removal of the DPBS, cultures were fixed for 20 min at room temperature with 50 μL/well of 3.5% formaldehyde (Sigma-Aldrich: 252549) in warm (37° C.) DPBS that contained 5.5 μg/mL of Hoechst 33342 dye (Invitrogen: H3570) to label cell nuclei. After removal of the fixative, the cultures were rinsed twice with 100 μL of DPBS and then a permeabilization/blocking buffer containing 5% normal goat serum and 0.3% triton-X100 in DPBS was added to the cultures for 10 min. After removal of the blocking buffer, the cultures were rinsed twice with 100 μL of DPBS and then primary antibodies were added for one-hour incubation at room temperature. Neurons were identified with antiserum to type III beta tubulin (tuj 1) to measure changes in all neuronal parameters. The primary antiserum employed was rabbit anti-rat obtained from Sigma-Aldrich (T2200) and used at 1:200 dilution. The secondary was an Alexa Fluor 488-conjugated Fab fragment of goat anti-rabbit IgG obtained from Life Technologies (A11070) used at 1:600.

hippocampal cultures = test: Alamar Blue cellular viability in hippocampal cultures, reversal of LPIA toxicity; format: cell-based, rat
Description: Because the scope of the anti-inflammatory actions of the 1,3-benzene diols included the central nervous system as well, hippocampal cultures were also employed as they express both mNCX-1 and GPR55, the two targets that mediate protection and inflammation, respectively. […] Poly-L-lysine-coated plates (BD Biosciences, Franklin Lakes, NJ) were used because of the preferential adherence and survival of neurons on this matrix support.
as §1, with “Similar results in assessing pharmacological responses were obtained with both assays (see Brenneman et al, 2019).” left out
On every plate, wells without cells were used to provide a blank reading that was used to subtract background fluorescence. […] Fluorescence was measured at an excitation of 530 nm and an emission of 590 on a Cytofluor plate reader. […]

GPR55 [3] = test: Neuritic GPR55 immunoreactive area in DRG cultures, 6 h co-treatment with LPIA; format: cell-based, rat
Description: (§5) Because of the recognized importance of sensory neurons in DRG to transmitting peripheral nociception (Krames, 2014) and the reported accumulation of paclitaxel in DRG from models of CIPN (Duggett et al., 2016), the preparation of choice for the in vitro studies to study protection and anti-inflammation was dissociated cultures from rat DRG. DRG cultures derived from embryonic day 18 rats were employed as the primary assay system to study KLS-13019-properties. In brief, DRG were obtained commercially through Brain Bits (Springfield, IL) and cultures prepared with slight modifications to methods previously described (Brenneman et al., 2019). Tissue was dissociated with a papain-based kit from Worthington Biochemical Corporation (Lakewood, NJ). The DRG cells were plated at low density (10,000 cells/well) in a 96-well format and maintained in serum-free medium consisting of Neurobasal Medium supplemented with B27, GlutaMAX (Gibco) and 25 ng/ml Nerve Growth Factor. Poly-D-lysine coated plates (BD Biosciences, Franklin Lakes, NJ) were employed for this culture system. Prior to the initiation of experiments between days 5 and 9 in vitro, a complete change of medium was performed in a working volume of 100 μL.
To assess all antibody-based assays, immunocytochemical methods were employed. The goals for these assays included: 1) to assess the immunoreactive area of our molecular targets (IL-1β, IL-6, GPR55, NLRPA3) with their respective primary antibodies and distinctively labeled secondary antibodies; and 2) to compare the relative responses in both neuronal cell bodies and neurites. Prior to fixation, growth medium was removed and the wells were rinsed one time with 100 μL of DPBS (37° C.). This warm rinse is particularly important to maintain structural stability of neurites. After removal of the DPBS, cultures were fixed for 20 min at room temperature with 50 μL/well of 3.5% formaldehyde (Sigma-Aldrich: 252549) in warm (37° C.) DPBS that contained 5.5 μg/mL of Hoechst 33342 dye (Invitrogen: H3570) to label cell nuclei. […]

[4] = system: cultures of the central and peripheral nervous system; details: Kinney 2016; Brenneman 2018, 2019; US 9,611,213; US 10,004,722; cited from earlier work
GPR55 [5] = details: DRG neurons
Description: as §5
as §4, with “The secondary was an Alexa Fluor 488-conjugated Fab fragment of goat anti-rabbit IgG obtained from Life Technologies (A11070) used at 1:600.” left out

interleukin-1β = details: 1 nM LPIA, after one hour of incubation, DRG neurons
Description: as §5
as §4, with “The secondary was an Alexa Fluor 488-conjugated Fab fragment of goat anti-rabbit IgG obtained from Life Technologies (A11070) used at 1:600.” left out

interleukin-6 = details: 1 nM LPIA, after one hour of incubation, DRG neurons
Description: as §5
as §4, with “The secondary was an Alexa Fluor 488-conjugated Fab fragment of goat anti-rabbit IgG obtained from Life Technologies (A11070) used at 1:600.” left out

[6] = 3 μM paclitaxel 8 h, then 16 h treatment

T1 sequence (Q9Y2T6 whole entry): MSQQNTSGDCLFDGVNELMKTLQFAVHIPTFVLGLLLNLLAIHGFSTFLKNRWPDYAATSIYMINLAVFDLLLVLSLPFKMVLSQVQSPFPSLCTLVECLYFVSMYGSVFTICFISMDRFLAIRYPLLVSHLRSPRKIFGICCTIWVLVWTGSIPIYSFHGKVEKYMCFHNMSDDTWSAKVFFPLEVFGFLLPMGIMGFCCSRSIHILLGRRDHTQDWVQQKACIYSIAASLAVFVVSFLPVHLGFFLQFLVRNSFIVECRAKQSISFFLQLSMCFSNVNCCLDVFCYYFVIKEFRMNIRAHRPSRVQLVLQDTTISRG

CC(=O)O[C@H]1C(=O)[C@@]2(C)[C@H]([C@H](OC(=O)c3ccccc3)[C@]3(O)C[C@H](OC(=O)[C@H](O)[C@@H](NC(=O)c4ccccc4)c4ccccc4)C(C)=C1C3(C)C)[C@]1(OC(C)=O)CO[C@@H]1C[C@@H]2O [paclitaxel, reference compound]
Effect of paclitaxel on cellular viability of DRG cultures ([1]; 3 μM paclitaxel): toxicity
Effect of paclitaxel on IL-1β IR area in cell bodies and neurites (interleukin-1β (IL-1β); 3 μM paclitaxel, DRG neurons): increases in IL-1β (IR) area
Effect of paclitaxel on cell body GPR55 immunoreactive area (GPR55 [2]; 3 μM paclitaxel, DRG cultures): increases in GPR55 area
Effect of paclitaxel on IL-6 IR area in cell bodies and neurites (interleukin-6 (IL-6); 3 μM paclitaxel, DRG neurons): increases in IL-6 (IR) area

C=C(C)[C@@H]1CCC(C)=C[C@H]1c1c(O)cc(CC2CN(C(C)=O)C2)cc1O [KLS-13019, 1-(3-(3,5-dihydroxy-4-((1R,6R)-3-methyl-6-(prop-1-en-2-yl)cyclohex-2-enyl)benzyl)azetidin-1-yl)ethenone]
Protection of DRG cells from paclitaxel toxicity (efficacy) ([1]; 3 μM paclitaxel 8 h pre-treatment, then 16 h treatment, relative to control cultures): fully protect
EC50 ([1]; Rattus norvegicus, read-out: EC50 in reversing previously established paclitaxel toxicity (Alamar Blue)): 0.2 nM
Agonist activity on β-arrestin, compound alone (human GPR55; 0.1 nM to 30 μM tested alone): no detectible agonist activity; also recorded: no detectible increases in β-arrestin signal
Antagonism of LPI-mediated increases in β-arrestin signal (human GPR55; 30 μM KLS-13019 in presence of 16 μM LPI, N=10): completely blocked
NLRP3 spot areas compared with control cultures (efficacy of reversal) (NLRP3; 1 nM KLS-13019, equimolar to LPIA): not different from that of control cultures
IC50 (NLRP3; Rattus norvegicus, Hippocampal neuron, 4 h, read-out: IC50 of decrease in neuritic NLRP3 area): 0.129 ± 0.043 nM
Reversal of paclitaxel-induced increase in IL-1β IR area in cell bodies and neurites (efficacy) (interleukin-1β (IL-1β); [6]): fully restored to the average area of control cultures
IC50 (interleukin-1β (IL-1β); Rattus norvegicus, DRG neuron, read-out: IC50 in reversing previously established increases in IL-1β IR area): 0.3 nM
Reversal of paclitaxel-induced increase in cell body GPR55 area (efficacy) (GPR55 [2]; [6]): fully returned to the average area of control cultures
EC50 (GPR55 [2]; Rattus norvegicus, DRG neuron, read-out: EC50 in reversing previously established increases in GPR55 area): 2.31 nM
Protection of hippocampal cells from LPIA toxicity (efficacy) (hippocampal cultures; 1 nM LPIA 4 h, then 4 h treatment, relative to control cultures): fully protect
EC50 (hippocampal cultures; Rattus norvegicus, 4 h, read-out: EC50 in reversing previously established LPIA toxicity (Alamar Blue)): 0.4 nM
IC50 (GPR55 [3]; Rattus norvegicus, 6 h, read-out: IC50 in preventing increases in GPR55 area): 0.107 ± 0.019 nM
Effect on LPIA-induced increase in neuritic GPR55 (GPR55 [3]; co-treatment with 1 nM LPIA, 6 hours): blocked
Effect on oxidative stress and nerve cell damage in previous studies [4]: prevent oxidative stress and nerve cell damage
Reversal of paclitaxel-induced increase in IL-6 IR area in cell bodies and neurites (efficacy) (interleukin-6 (IL-6); [6]): fully returned to the average area of control cultures
IC50 (interleukin-6 (IL-6); Rattus norvegicus, DRG neuron, read-out: IC50 in reversing previously established increases in IL-6 IR area): 0.3 nM

lysophosphatidylinositol arachidonate [LPIA]
Effect of LPIA on neuritic NLRP3 spot area (NLRP3; 1 nM LPIA, hippocampal cultures): increased NLRP3 spot area
Concentration producing a maximum effect on GPR55 IR area (GPR55 [5]; preliminary concentration-effect studies): 1 nM
Effect on GPR55 IR area (GPR55 [5]; LPIA, after one hour of incubation): increases in GPR55 IR area
Effect on neuritic IL-1β IR area (interleukin-1β): significant increases
Effect on neuritic IL-6 IR area (interleukin-6): significant increases
Effect of LPIA on neuritic GPR55 area (GPR55 [3]; 1 nM LPIA, 6 hours, DRG cultures): produced an increase in neuritic GPR55

lysophosphatidylinositol [LPI, reference compound]
Agonist signal in β-arrestin assay (human GPR55; 10 μM LPI): robust and reproducible signal; also recorded: robust agonist signal
